The text below walks through data of PubChem BioAssay (NCI).

Some test systems named below: HCC-2998 colon; MDA-MB-435; HOP-62 NSCLC; CCRF-CEM leukemia; SN12C renal; SK-OV-3 ovarian; SF-268 CNS; ACHN renal; U251 CNS; SK-MEL-5 melanoma; A498 renal; HOP-92 NSCLC; OVCAR-4 ovarian; 786-0 renal; NCI-H522 lung; OVCAR-3 ovarian; MDA-N.
What all share (assay): growth of human tumour cells (NCI), 48 h

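Tested at 5 concentrations; 48 h exposure; 96-well plates; endpoints linearly interpolated, else capped at highest concentration. TGI is the concentration that stops growth completely.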 Some results are limits rather than exact numbers.

`Fc1ccc2c3c([nH]c2c1)CCNC3`: the TGI with HCC-2998 colon, in the test with MDA-MB-435, in the test with HOP-62 NSCLC, with CCRF-CEM leukemia, with SN12C renal and in the test on SK-OV-3 ovarian was above 100 µM in each case. Further, the TGI in the test on SF-268 CNS was above 100 µM; in the test on ACHN renal, above 100 µM; in the test with U251 CNS it was above 100 µM; in the test with SK-MEL-5 melanoma it was above 100 µM; in the test on A498 renal, 65.9 µM; in the test with HOP-92 NSCLC, 85.9 µM. Besides, the TGI in the test on OVCAR-4 ovarian and in the test with 786-0 renal was above 100 µM each time.

On to `O=C(O)C1=NN(c2ccc(S(=O)(=O)O)cc2)C2(C1)SCC(=O)N2c1nc2ccccc2s1` (stereo not drawn), for which the TGI in the test with NCI-H522 lung, in the test with HCC-2998 colon, in the test with OVCAR-3 ovarian, in the test on MDA-MB-435, in the test on HOP-62 NSCLC and in the test on CCRF-CEM leukemia was above 100 µM in each case. Further, the TGI in the test on SN12C renal, in the test with SK-OV-3 ovarian, with SF-268 CNS, with ACHN renal, in the test on U251 CNS and in the test on SK-MEL-5 melanoma was above 100 µM throughout. For the same compound, the TGI in the test with A498 renal, with HOP-92 NSCLC, in the test on OVCAR-4 ovarian and with 786-0 renal was above 100 µM each time.

With `O=C(c1ccccc1)C1C[C@H]2CO[C@H](c3ccccc3)N2C1=O` (stereo partly drawn), the TGI with NCI-H522 lung, in the test on HCC-2998 colon, in the test with OVCAR-3 ovarian, in the test with MDA-MB-435, in the test on CCRF-CEM leukemia and in the test with SN12C renal was above 100 µM each time. The TGI with SF-268 CNS, in the test with ACHN renal, in the test on U251 CNS, in the test on SK-MEL-5 melanoma, with MDA-N and with HOP-92 NSCLC was above 100 µM throughout. The TGI in the test with OVCAR-4 ovarian and in the test on 786-0 renal was above 100 µM in each case.

As for `CCOC(=O)c1ccc(N=c2oc3ccc(OC)cc3cc2-c2nc3ccccc3[nH]2)cc1`, the TGI in the test on NCI-H522 lung, with HCC-2998 colon, in the test on OVCAR-3 ovarian, in the test with MDA-MB-435, in the test with HOP-62 NSCLC and in the test with CCRF-CEM leukemia was above 100 µM throughout. In addition, the TGI was above 100 µM with SN12C renal; above 100 µM in the test with SK-OV-3 ovarian; above 100 µM in the test on SF-268 CNS; above 100 µM with ACHN renal; above 100 µM in the test with U251 CNS; 80.4 µM in the test on SK-MEL-5 melanoma. Also, the TGI in the test on MDA-N, with HOP-92 NSCLC, with OVCAR-4 ovarian and in the test with 786-0 renal was above 100 µM in each case.

With `CC1=C2CN(C(=O)OCC(C)C)CCC2C2=C(C(=O)c3ccccc3C2=O)C1C` (stereo not drawn), the TGI in the test with HCC-2998 colon, in the test on MDA-MB-435, in the test on HOP-62 NSCLC, in the test on CCRF-CEM leukemia, in the test on SN12C renal and in the test on SK-OV-3 ovarian was above 10 µM in each case. Further, the TGI in the test on SF-268 CNS, with SK-MEL-5 melanoma, with MDA-N, in the test on HOP-92 NSCLC, in the test with OVCAR-4 ovarian and in the test with 786-0 renal was above 10 µM in each case.

As to `N#CCc1nc(-c2cc3c(ccc4ccccc43)oc2=O)cs1`, the TGI was 27.4 µM in the test with NCI-H522 lung; above 100 µM in the test with HCC-2998 colon; above 100 µM in the test on MDA-MB-435; 32.2 µM with HOP-62 NSCLC; above 100 µM in the test with CCRF-CEM leukemia; above 100 µM with SN12C renal. In addition, the TGI in the test with SK-OV-3 ovarian is 77 µM; in the test on SF-268 CNS, above 100 µM; in the test on ACHN renal, 79.1 µM; with U251 CNS, 38.5 µM; in the test with SK-MEL-5 melanoma, above 100 µM; in the test with HOP-92 NSCLC, 44.5 µM. Besides, the TGI came out at 60.4 µM in the test with OVCAR-4 ovarian and 51.6 µM in the test on 786-0 renal.

Consider `NC(=O)OCc1c(-c2ccccc2)nn(-c2ccccc2)c1COC(N)=O`, for which the TGI with NCI-H522 lung, with HCC-2998 colon, in the test with OVCAR-3 ovarian, in the test on MDA-MB-435, with SN12C renal and in the test with SF-268 CNS was above 100 µM in each case. Further, the TGI in the test on U251 CNS, in the test with SK-MEL-5 melanoma, in the test with MDA-N, in the test on HOP-92 NSCLC, with OVCAR-4 ovarian and with 786-0 renal was above 100 µM in each case.

On to `CCc1ccccc1NC(=O)C(=O)CC(=O)c1sc(Nc2ccccc2Cl)nc1C`, for which the TGI in the test with NCI-H522 lung is 47.5 µM; in the test with HCC-2998 colon, above 100 µM; in the test on OVCAR-3 ovarian, 61 µM; in the test with MDA-MB-435, 66.4 µM; in the test on HOP-62 NSCLC, above 100 µM; in the test on CCRF-CEM leukemia it was 58.9 µM. Besides, the TGI in the test with SN12C renal was above 100 µM; in the test with SK-OV-3 ovarian it was 63.3 µM; in the test on SF-268 CNS, above 100 µM; with ACHN renal it was above 100 µM; with U251 CNS, above 100 µM; in the test on SK-MEL-5 melanoma it was 52.4 µM. For the same compound, the TGI in the test with MDA-N was 94.4 µM; with OVCAR-4 ovarian, above 100 µM; in the test with 786-0 renal, 90.9 µM.

`COc1cc2c(cc1OC)C(=O)/C(=C/c1ccc([N+](=O)[O-])cc1)CC2`: the TGI in the test with HCC-2998 colon, in the test on OVCAR-3 ovarian, with MDA-MB-435, in the test on HOP-62 NSCLC, in the test with CCRF-CEM leukemia and with SN12C renal was above 10 µM in each case. Also, the TGI in the test on SK-OV-3 ovarian, with SF-268 CNS, in the test with ACHN renal, in the test with U251 CNS, with SK-MEL-5 melanoma and in the test on MDA-N was above 10 µM each time. For the same compound, the TGI with HOP-92 NSCLC, in the test on OVCAR-4 ovarian and in the test with 786-0 renal was above 10 µM each time.

For `O=[N+]([O-])c1ccc(C(=Nc2ccccc2)SSC(=Nc2ccccc2)c2ccc([N+](=O)[O-])o2)o1`, the TGI in the test with NCI-H522 lung was 0.755 µM; in the test on HCC-2998 colon, 3.41 µM; in the test with OVCAR-3 ovarian, 3.38 µM; in the test with MDA-MB-435, 6.17 µM; in the test with HOP-62 NSCLC it was 6.23 µM; in the test with SN12C renal, 4.48 µM. In addition, the TGI in the test with SK-OV-3 ovarian is 14.3 µM; with SF-268 CNS it was 4.4 µM; with ACHN renal, 5.21 µM; in the test on U251 CNS it was 2.24 µM; with SK-MEL-5 melanoma, 20.9 µM; in the test on MDA-N it was 12.4 µM. Moreover, the TGI came out at 6.22 µM in the test with HOP-92 NSCLC, 3 µM with OVCAR-4 ovarian and 4.08 µM in the test with 786-0 renal.
